Test results from patent publication US6335339B1, “Triazine antiviral compounds” (Scriptgen Pharmaceuticals, Inc., priority 1998, dated 2002).
Where two headings read alike, the source gives them in different places.

Legend:
[1] = neutral red dye uptake cytotoxicity; format: cell-based; conditions: human, 2.2.15 cells (confluent cultures), 9 days treatment, read-out: 50% Cell Death CC50
Outline: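 Confluent 2.2.15 cultures, same conditions as antiviral assay, treated daily for 9 days with 4 concentrations (3.3-fold dilutions), triplicate wells. 24 hours after the final dose, cells stained 30 minutes with 0.01% neutral red, dye extracted and A510 read; values as % of untreated cultures, CC50 as 50% cell death.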

HBV = assay: antiviral assay in 2.2.15 cells producing HBV (virion DNA dot blot); format: cell-based, Hepatitis B virus
From the text: Several cell lines and cell culture assays have been developed to identify potential therapeutics effective against chronic HBV infection. One of these cell lines, 2.2.15, has been used in a standardized assay that has repeatedly proven to be an accurate model of chronic cellular HBV replication and a predictive model of antiviral response for chronic hepadnaviral infection in vivo. 2.2.15 cells contain copies of the complete HBV genome integrated into the cell's genome, and 2.2.15 cells are not susceptible to infection by HBV. (Sells, M. A. et al., J. Virol. 62 (8): 2836-2844 (1988)). These cells express HBV genes producing complete HBV particles capable of infecting chimpanzees (Acs, G. et al., Proc. Natl. Acad. Sci. USA 84 (13): 4641-4644 (1987)). Briefly, 2.2.15 cells are cultured and pretreated with a test compound for about 9 days, at which point the media are harvested and subjected to dot-blot hybridization to detect HBV virion DNA.
The antiviral activity of the compounds of the present invention is measured by the methods described in Korba and Gering, Antiviral Res. 19: 55-70 (1992).
This assay format is well suited to the screening of test compounds for potential antiviral activity. The assay provides a threshold assessment of antiviral activity by measuring (i) the levels of HBV virion release from the cells and (ii) cytotoxicity. Two rows of cells were used for each compound, and 4 rows for the assay controls (two for untreated, and two for positive antiviral control, e.g., 3TC). After incubating in the presence of test compound for 9 days, the media were harvested, transferred to 96-well U-bottom plates, and centrifuged. The supernatants were transferred to tubes for dot blot hybridization analysis of HBV virion DNA. The medium was aspirated off of the toxicity plates and discarded. Toxicity plates were then incubated with neutral red dye (MTT can also be used if preferred), washed with DPBS, developed with an acetic acid-ethanol solution, and assayed in a plate reader.
1. 2.2.15 cells were seeded into 96-well, flat bottom tissue culture plates as described above. Duplicate plates were used for the antiviral treatments for each test compound (up to 8 compounds per pair of plates); after three to four days, cells were confluent and medium was yellow in color; the medium was removed and replaced with 100 μl RP2 24 hours before the beginning of drug treatment.
i) For each compound, a total of 4 concentrations were examined; this required 9 sets of 4 sterile, 1.1 ml minitubes (36 tubes per compound). Into the first tube of each set, sufficient compound was aliquoted to make up 700 μl (for 10-fold dilution series) or 980 μl (for 3.3-fold dilution series) of the highest test concentration; the other tubes were left empty.
i) For a 10-fold dilution series: to the first (compound containing) tube was added 700 μl (175 μl×4). 630 μl (210 μl×3) RP2 culture medium was added to the remaining 3 tubes. The first tube was mixed by pipeting up and down with a pipetman (a multichannel pipetman permits the simultaneous processing of multiple compounds). 70 μl of test compound-containing medium were serially transferred from the first tube to the other 3 tubes, taking care to thoroughly mix each tube before transferring medium;
b) 100 μl of each dilution of every compound was added to each of 6 wells (3 wells per plate) using the configuration listed below as an example. The lowest concentration was added first, and the same tips were used to add the higher concentrations. The untreated cells received 100 μl RP2 per well (untreated cells have to be carried on only one pair of the antiviral assay plates).
c) Treatments were repeated daily for 9 days. For the last day of treatment, and additional 200 μl RP2 were added to each well of the antiviral assay plates after the wells are treated with the test compounds (a total of 300 μl medium per well).
6. […]

[2] = extra-cellular virus reduced by 50%, 2.2.15 cells, 9 days treatment, read-out: Antiviral EC50

Compound	EC50 (HBV; [2]) [µM]	also measured
CCN(CC)c1nc(NCc2ccccc2)nc(N/N=C/c2ccccc2O)n1 [Compound 155, 2-hydroxybenzaldehyde N-[4-(benzylamino)-6-(diethylamino)-1,3,5-triazin-2-yl]hydrazone]		CC50 at 9 days [1]: 59 µM; EC50 (HBV; Hepatitis B virus, 216 h, read-out: Antiviral EC50 (μM)): 0.063 µM; EC50 (HBV; Hepatitis B virus, 216 h, extra-cellular virus reduced by 50%, 2.2.15 cells, 9 days treatment, read-out: Antiviral EC50): 0.001 µM
CCN(CC)c1nc(NN=Cc2ccc(Cl)c([N+](=O)[O-])c2)nc(Nc2cc(C)ccc2C)n1 [Compound 214]	> 100	
Clc1ccc(C=NNc2nc(Nc3ccccc3)nc(N3CCCC3)n2)cc1 [Compound 218]	> 100	
Cc1ccc(Nc2nc(NCc3ccccc3)nc(NN=Cc3cc(Br)cc(Br)c3O)n2)cc1C [Compound 219]	> 100	
O=C(NNc1nc(Nc2ccccc2)nc(Nc2cccc(C(F)(F)F)c2)n1)c1cccc(Br)c1 [Compound 220]	> 100	
CN(C)c1nc(NCc2ccccc2)nc(NN=Cc2ccc(Cl)cc2Cl)n1 [Compound 224]	> 100	
COc1ccc(Nc2nc(NCc3cccc([N+](=O)[O-])c3)nc(NCc3cc(F)ccc3F)n2)cc1OC [Compound 225]	> 100	
Cc1ccc(Nc2nc(NCc3ccccc3)nc(NN=Cc3cc(Cl)ccc3O)n2)cc1C [Compound 226]	> 100	
CC(=NNc1nc(Nc2ccccc2)nc(N2CCCC2)n1)c1ccc(F)cc1 [Compound 227]	> 100	
Cc1ccc(Nc2nc(NCc3ccccc3)nc(NN=Cc3ccccc3F)n2)cc1C [Compound 228]	> 100	
Cc1ccc(Nc2nc(NN=Cc3cccc([N+](=O)[O-])c3)nc(Nc3ccccc3)n2)c(C)c1 [Compound 229]	> 100	
Brc1ccc(Nc2nc(NCc3ccccc3)nc(Nc3ccc(Br)cc3)n2)cc1 [Compound 230]	> 100	
O=[N+]([O-])c1ccc(Nc2nc(NCc3ccccc3)nc(N3CCOCC3)n2)cc1 [Compound 231]	> 100	
Oc1ccc(Br)cc1C=NNc1nc(Nc2cccc(Br)c2)nc(N2CCOCC2)n1 [Compound 232]	> 100	
CNc1nc(NN=Cc2cc(Cl)ccc2O)nc(Nc2ccccc2)n1 [Compound 245]	> 100	
Oc1ccc(Br)cc1C=NNc1nc(Nc2cccc(C(F)(F)F)c2)nc(N2CCOCC2)n1 [Compound 246]	5.2	
FC(F)(F)c1cccc(Nc2nc(Nc3cccc(Cl)c3)nc(N3CCOCC3)n2)c1 [Compound 247]	> 100	
Cc1ccc(Nc2nc(NCc3cc(F)ccc3F)nc(Nc3ccc([N+](=O)[O-])cc3)n2)cc1C [Compound 248]	> 100	
Cc1ccc(Nc2nc(NN=Cc3ccc(Cl)cc3)nc(N3CCOCC3)n2)cc1 [Compound 249]	> 100	
Cc1ccc(Nc2nc(NNC(=O)c3ccccc3O)nc(Oc3ccc([N+](=O)[O-])cc3)n2)cc1C [Compound 250]	> 100	
Cc1ccc(Nc2nc(Nc3cccc(C(F)(F)F)c3)nc(N3CCOCC3)n2)cc1C [Compound 251]	> 100	
COc1ccc(Nc2nc(NCCc3ccccc3)nc(N(C)C)n2)cc1OC [Compound 252]	9.5	
CNc1nc(NN=Cc2ccccc2C(F)(F)F)nc(Nc2cccc(C(F)(F)F)c2)n1 [Compound 253]	18	
